Reference: PubChem BioAssay AID743317 (Broad Institute, 2014)
Results filed as inconclusive are left out. Active and inactive are the calls of the source.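 The calls were made as follows: active = fitted curve reaches 40% activation at or below the top valid dose, and every replicate test is called active; inconclusive = replicate tests disagree, some active and some inactive; inactive = all replicate tests inactive, including activity in the wrong direction.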

Biological target: Endoplasmic reticulum aminopeptidase 1 (Homo sapiens) (UniProt Q9NZ08)
Sequence (Q9NZ08 whole entry, looked up): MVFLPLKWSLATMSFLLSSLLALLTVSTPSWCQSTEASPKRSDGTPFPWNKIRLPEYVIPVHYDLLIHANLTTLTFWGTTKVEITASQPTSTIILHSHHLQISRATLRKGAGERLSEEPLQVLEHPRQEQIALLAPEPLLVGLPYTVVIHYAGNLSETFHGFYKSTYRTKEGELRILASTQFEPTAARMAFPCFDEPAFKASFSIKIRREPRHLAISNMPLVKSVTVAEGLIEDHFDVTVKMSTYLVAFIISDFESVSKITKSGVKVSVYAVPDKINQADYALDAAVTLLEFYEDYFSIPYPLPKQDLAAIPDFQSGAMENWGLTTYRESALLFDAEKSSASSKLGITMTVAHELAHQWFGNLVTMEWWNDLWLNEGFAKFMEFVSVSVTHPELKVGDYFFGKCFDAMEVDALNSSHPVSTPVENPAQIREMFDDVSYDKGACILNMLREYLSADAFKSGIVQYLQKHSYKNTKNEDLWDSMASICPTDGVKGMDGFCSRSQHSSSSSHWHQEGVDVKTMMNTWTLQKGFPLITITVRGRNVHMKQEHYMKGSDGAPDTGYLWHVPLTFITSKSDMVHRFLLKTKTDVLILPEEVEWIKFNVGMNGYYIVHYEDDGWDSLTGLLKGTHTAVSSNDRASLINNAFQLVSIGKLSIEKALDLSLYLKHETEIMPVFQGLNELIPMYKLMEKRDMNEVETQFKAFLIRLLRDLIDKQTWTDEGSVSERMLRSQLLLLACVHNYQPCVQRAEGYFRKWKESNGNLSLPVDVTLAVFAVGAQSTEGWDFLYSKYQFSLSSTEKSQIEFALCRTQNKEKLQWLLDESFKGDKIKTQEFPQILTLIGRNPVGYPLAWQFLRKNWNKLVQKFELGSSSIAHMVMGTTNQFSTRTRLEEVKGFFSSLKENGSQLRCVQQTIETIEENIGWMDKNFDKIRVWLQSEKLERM
Assay: ERAP1 aminopeptidase activity change, dose response, biochemical, fluorescence, cherry-pick (AID 743317)
Settings: ERAP1 enzyme, Leu-AMC fluorescence, 60 min

CCN(CCCl)c1cc(CN(C)C)cc(NC(=O)c2ccc(C(=O)Nc3cc(CN(C)C)cc(N(CC)CCCl)c3)cc2)c1
activity increase (activation) (at 11 µM (top of the series)): -76% (inactive)

COc1ccc(CN(C)C[C@H]2OCCCC[C@@H](C)Oc3ccc(NS(=O)(=O)c4cccs4)cc3C(=O)N([C@H](C)CO)C[C@H]2C)cc1
AC40: 1230 nM

Cc1ccccc1-c1ccc2c(c1)O[C@@H](CN(C)Cc1ccc(C(=O)O)cc1)[C@@H](C)CN([C@H](C)CO)S2(=O)=O
AC40: 4290 nM

C[C@@H]1CCCCO[C@@H](CN(C)Cc2ccc(C(=O)O)cc2)[C@H](C)CN([C@@H](C)CO)C(=O)c2cc(NS(=O)(=O)c3ccc(Cl)cc3)ccc2O1
AC40: 3660 nM

CN(C)Cc1c(O)ccc2cc(-c3nc4ccccc4n3C)c(=O)oc12
activity increase (activation) (at 11 µM (top of the series)): -107% (inactive)

COc1ccc(CN(C)C[C@H]2OCCCC[C@@H](C)Oc3ccc(NS(=O)(=O)c4cccs4)cc3C(=O)N([C@@H](C)CO)C[C@@H]2C)cc1
AC40: 4590 nM

COc1ccc(CN(C)C[C@@H]2OCCCC[C@H](C)Oc3ccc(NS(=O)(=O)c4cccs4)cc3C(=O)N([C@@H](C)CO)C[C@@H]2C)cc1
AC40: 1190 nM

CCN1CCN(Cc2c(O)ccc3c(C)cc(=O)oc23)CC1
activity increase (activation) (at 11 µM (top of the series)): -54.6% (inactive)

COc1cc2ccc(=O)oc2cc1O
activity increase (activation) (at 11 µM (top of the series)): -97.7% (inactive)

CN1c2ccc(-c3ccc(C#N)cc3)cc2[C@@H]2[C@@H](CCN2C(=O)CC2CC2)[C@@H]1CO
activity increase (activation) (at 11 µM (top of the series)): -8.63% (inactive)

O=c1ccc2cc(OC3O[C@H](CO)[C@@H](O)[C@H](O)[C@H]3O)c(O)cc2o1 (some centres not stated)
activity increase (activation) (at 5.6 µM (top of the series)): -95.4% (inactive)

O=C(CSc1cn[nH]n1)Nc1cccc(C(=O)O)c1
activity increase (activation) (at 11 µM (top of the series)): -63.3% (inactive)

C[C@@H]1CCCCO[C@@H](CN(C)Cc2ccccc2)[C@@H](C)CN([C@H](C)CO)C(=O)c2cc(NS(=O)(=O)c3cccs3)ccc2O1
AC40: 158 nM

CCCN(C)C[C@@H]1OCCCC[C@@H](C)Oc2ccc(NS(=O)(=O)c3ccc(C)cc3)cc2C(=O)N([C@@H](C)CO)C[C@@H]1C
AC40: 133 nM

CCCc1cc(=O)oc2c(CN3CCN(C)CC3)c(O)ccc12
activity increase (activation) (at 5.6 µM (top of the series)): -44.3% (inactive)

C[C@@H]1CCCCO[C@H](CN(C)Cc2ccccc2)[C@H](C)CN([C@@H](C)CO)C(=O)c2cc(NS(=O)(=O)c3cccs3)ccc2O1
AC40: 607 nM

O=C(Nc1ccc(C(F)(F)F)cc1)N1[C@@H]2CNC[C@H]1C2c1ccc(-c2ccncc2)cc1 (some centres not stated)
AC40: 7230 nM

C[C@H](CO)N1C[C@H](C)[C@@H](CN(C)C)Oc2c(NC(=O)Nc3ccc(C(F)(F)F)cc3)cccc2C1=O
AC40: 762 nM

Cc1noc(C)c1NC(=O)N(C)C[C@@H]1Oc2c(NC(=O)Nc3ccccc3)cccc2C(=O)N([C@H](C)CO)C[C@@H]1C
AC40: 6450 nM

C[C@@H]1CCCCO[C@@H](CN(C)Cc2ccc3c(c2)OCO3)[C@@H](C)CN([C@@H](C)CO)C(=O)c2cc(NS(=O)(=O)c3ccccc3)ccc2O1
AC40: 563 nM

CCCN(C)C[C@@H]1OCCCC[C@@H](C)Oc2ccc(NS(=O)(=O)c3ccc(F)cc3)cc2C(=O)N([C@H](C)CO)C[C@@H]1C
AC40: 3880 nM

CCN(CC)c1ccc2c(C)c(Cl)c(=O)oc2c1
AC40: 8190 nM

C[C@@H]1CCCCO[C@@H](CN(C)Cc2ccc3c(c2)OCO3)[C@@H](C)CN([C@H](C)CO)C(=O)c2cc(NS(=O)(=O)c3cccs3)ccc2O1
AC40: < 80 nM

C/C(=N\NC(=O)CC#N)c1cc2ccc(O)cc2oc1=O
activity increase (activation) (at 11 µM (top of the series)): -67.1% (inactive)

CC(C)[C@@H](C(=O)N[C@@H](CCc1ccc(O)cc1)C(=O)O)N(C)C(=O)[C@H](CO)NC(=O)[C@@H](O)[C@H](N)CCCCCCCCl
activity increase (activation) (at 11 µM (top of the series)): -103% (inactive)

O=C(O)c1cccc(NC(=O)c2ccccc2NC(=O)c2cccc([N+](=O)[O-])c2)c1
AC40: 967 nM

C[C@@H]1CCCCO[C@@H](CN(C)C)[C@@H](C)CN([C@@H](C)CO)C(=O)c2cc(NS(=O)(=O)c3ccc(F)cc3)ccc2O1
AC40: 454 nM

C[C@@H]1CCCCO[C@H](CN(C)Cc2ccc(C(=O)O)cc2)[C@H](C)CN([C@@H](C)CO)C(=O)c2cc(NC(=O)Nc3ccc(C(F)(F)F)cc3)ccc2O1
AC40: 91.9 nM

Cc1cc2nc(-c3ccc[nH]c3=O)[nH]c2cc1C
activity increase (activation) (at 5.6 µM (top of the series)): -30.6% (inactive)

CCCc1cc(=O)oc2c(CN(CC)CC)c(O)c(Cl)cc12
activity increase (activation) (at 11 µM (top of the series)): -58.6% (inactive)

CNC[C@H]1Oc2c(NC(=O)Nc3ccc(C(F)(F)F)cc3)cccc2C(=O)N([C@@H](C)CO)C[C@@H]1C
AC40: 646 nM

CCCNC(=O)C[C@@H]1CC[C@@H]2[C@H](COC[C@H](O)CN2C(=O)Nc2cccc(Cl)c2)O1
AC40: 6770 nM

C[C@@H]1CCCCO[C@@H](CN(C)C)[C@H](C)CN([C@@H](C)CO)C(=O)c2cc(NC(=O)Nc3ccc(C(F)(F)F)cc3)ccc2O1
AC40: 516 nM

C[C@@H]1CCCCO[C@@H](CN(C)C)[C@@H](C)CN([C@@H](C)CO)C(=O)c2cc(NS(=O)(=O)c3ccc(Cl)cc3)ccc2O1
AC40: 636 nM

C[C@H](CO)N1C[C@H](C)[C@H](CN(C)CC2CCCCC2)Oc2c(NC(=O)Nc3ccc(C(F)(F)F)cc3)cccc2C1=O
AC40: 565 nM

C[C@H]1CN([C@@H](C)CO)C(=O)c2cccc(NC(=O)Nc3ccc4c(c3)OCO4)c2O[C@@H]1CN(C)CC1CC1
AC40: 770 nM

CCCN(C)C[C@@H]1OCCCC[C@@H](C)Oc2ccc(NS(=O)(=O)c3c(C)noc3C)cc2C(=O)N([C@H](C)CO)C[C@@H]1C
AC40: 1240 nM
